Laboratory results reported in publication PMC7724564 (Science Bulletin, 2020).

Biological target: human angiotensin-converting enzyme 2 (ACE2) (Homo sapiens, UniProt Q9BYF1)
Assay: biolayer interferometry
Assay type: binding

Chain of human angiotensin-converting enzyme 2 (ACE2) (Q9BYF1 18-740): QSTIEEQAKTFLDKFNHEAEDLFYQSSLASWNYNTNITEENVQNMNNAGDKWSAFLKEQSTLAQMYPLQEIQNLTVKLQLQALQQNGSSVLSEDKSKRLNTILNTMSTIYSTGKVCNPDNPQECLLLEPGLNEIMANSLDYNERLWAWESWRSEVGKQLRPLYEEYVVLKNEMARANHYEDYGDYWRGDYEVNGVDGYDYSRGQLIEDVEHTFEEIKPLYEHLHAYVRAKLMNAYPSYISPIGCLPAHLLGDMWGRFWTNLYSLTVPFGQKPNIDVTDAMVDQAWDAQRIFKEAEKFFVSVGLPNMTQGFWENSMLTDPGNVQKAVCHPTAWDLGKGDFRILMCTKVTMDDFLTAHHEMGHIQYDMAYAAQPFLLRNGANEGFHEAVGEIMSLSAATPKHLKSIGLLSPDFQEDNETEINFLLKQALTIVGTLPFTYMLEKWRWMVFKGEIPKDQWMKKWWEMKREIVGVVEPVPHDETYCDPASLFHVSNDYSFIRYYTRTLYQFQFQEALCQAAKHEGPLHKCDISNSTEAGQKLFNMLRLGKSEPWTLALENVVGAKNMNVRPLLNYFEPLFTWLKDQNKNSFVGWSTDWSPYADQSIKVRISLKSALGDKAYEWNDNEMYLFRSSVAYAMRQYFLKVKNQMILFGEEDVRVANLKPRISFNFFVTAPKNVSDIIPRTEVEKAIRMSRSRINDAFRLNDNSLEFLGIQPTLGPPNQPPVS

For `C=CC1=C(C)c2cc3[nH]c(cc4nc(cc5[nH]c(cc1n2)c(C)c5CCC(=O)O)C(CCC(=O)O)=C4C)c(C)c3C=C` [protoporphyrin IX], the Kd was 39 µM.
